According to patent publication US20100137344A1, “INDUCTION OF ANALGESIA IN NEUROPATHIC PAIN” (University Court of the University of Edinburgh, priority 2006, published 2010):

What was measured:
[1] = tested on: rats with chronic constriction injury (CCI); assay: Sensitivity to noxious cold (4° C. water) in CCI animals with oligonucleotide infusion; format: in vivo, rat; settings: at peak, control CCI 8.1±0.5 s
Method: Thermal sensitivity was assessed by measuring paw withdrawal latency (PWL, s) in response to a noxious thermal stimulus (Hargreaves' thermal stimulator, Linton Instrumentation, Diss, UK) directed to the hindpaw mid-plantar glabrous surface. Mechanical sensitivity was recorded as the paw withdrawal threshold (PWT, mN/mm^2) to calibrated von Frey filaments (Stoelting, Ill., US), as previously described^[39]. Sensitivity to noxious cold was assessed by placing animals in a waterbath with an aluminium floor containing 1 cm deep 4° C. water and counting the time the paw was held suspended over a 20 s period.
Antisense and mis-sense oligonucleotides were 22-mers with phosphorothioate bonds at the last two positions at 5′ and 3′ ends (MWG Biotech, Ebersberg, Germany). Antisense extended from base −10 to base +12 relative to the start of the open reading frame for the rat TRPM8 gene: 5′ C*T*CGAAGGACATCTTGCCGT*G*G 3′, where * represents phosphorothioate linkages. Mis-sense was designed with 4 inversions of C/G or A/T as appropriate at residues 3, 11, 14 and 22, preserving overall G/C content. BLAST searches of both oligonucleotides indicated no significant complementarity to any known gene sequence. […]

TRPM8 = assay: Antisense knockdown of TRPM8, DRG immunoblots (TRPM8:GAPDH); format: in vivo, rat; settings: for TRPM8:GAPDH ratio in DRG: intrathecal oligonucleotide infusion
Text: Antisense and mis-sense oligonucleotides were 22-mers with phosphorothioate bonds at the last two positions at 5′ and 3′ ends (MWG Biotech, Ebersberg, Germany). Antisense extended from base −10 to base +12 relative to the start of the open reading frame for the rat TRPM8 gene: 5′ C*T*CGAAGGACATCTTGCCGT*G*G 3′, where * represents phosphorothioate linkages. Mis-sense was designed with 4 inversions of C/G or A/T as appropriate at residues 3, 11, 14 and 22, preserving overall G/C content. BLAST searches of both oligonucleotides indicated no significant complementarity to any known gene sequence. 14-day or 7-day osmotic minipumps (for CCI experiments or naïve electrophysiology experiments respectively—Alzet Minipump, models 2002, 2001; Charles River, UK) containing oligonucleotides (1 μg/μl in sterile saline) were connected to canulae inserted under the dura of the spinal cord to level L5/6 and produced a predicted infusion rate of 0.5 μl/h. CCI surgery was performed at the same time as minipump implantation. Sensory tests were carried out to assess the time-course of behavioural sensitisation in animals which had also undergone a CCI injury. Icilin was applied topically rather than intrathecally so as to prevent any interference with the infusion canula. […]
Ipsilateral or contralateral L4-L6 dorsal root ganglia (DRG) were taken from CCI animals (n=6), and from […]. […] Blots were incubated with rabbit polyclonal antibodies to TRPM8 (either an antibody raised against TRPM8 residues 278-292 and 1090-1104 (human); 1:500; Abcam Ltd., Cambridge, UK or occasionally an antibody raised against TRPM8 residues 656-680 (rat); 1:100; Phoenix Peptides, Belmont, Calif., USA), a rabbit polyclonal antibody to TRPV1 (1:250, Chemicon International Ltd, Harrow, UK) or a mouse monoclonal antibody to glyceraldehyde-3-phosphate dehydrogenase (GAPDH, 1:750; Chemicon) and immunoreactive bands were detected by […] secondary antibody and enhanced chemiluminescence. Quantitative densitometry analysis of protein bands was performed using the ScanAnalysis (Elsevier) programme.

5′ C*T*CGAAGGACATCTTGCCGT*G*G 3′ (antisense CTCGAAGGACATCTTGCCGTGG; linkages s2 o17 s2 (s phosphorothioate, o phosphodiester), sugars by position and methylation of C not given here) [TRPM8 antisense, 22-mer with phosphorothioate bonds, base −10 to +12 of rat TRPM8 open reading frame]
elevation of the paw ipsilateral to nerve injury out of 4° C. water [1]: 7.6 ± 0.6 s
TRPM8:GAPDH ratio in DRG (TRPM8; contralateral to CCI): 14.9±2.1%
TRPM8:GAPDH ratio in DRG (TRPM8; ipsilateral to CCI): 19.8±2.2%
knockdown of the 128 kDa TRPM8 band in DRG (TRPM8; naïve rats, intrathecal delivery over 5 days): almost complete knockdown
